Experimental data: patent US20050054696A1, “Indole compounds and medicinal use thereof” (priority 2001, published 2005)

Target: T1, recombinant human liver glycogen phosphorylase (HLGPa) (Homo sapiens, UniProt P06737)
T1 construct: made in house; host or cells: Sf9 insect cells (unpurified cell lysate used as enzyme solution)
T1 sequence (P06737 1-847): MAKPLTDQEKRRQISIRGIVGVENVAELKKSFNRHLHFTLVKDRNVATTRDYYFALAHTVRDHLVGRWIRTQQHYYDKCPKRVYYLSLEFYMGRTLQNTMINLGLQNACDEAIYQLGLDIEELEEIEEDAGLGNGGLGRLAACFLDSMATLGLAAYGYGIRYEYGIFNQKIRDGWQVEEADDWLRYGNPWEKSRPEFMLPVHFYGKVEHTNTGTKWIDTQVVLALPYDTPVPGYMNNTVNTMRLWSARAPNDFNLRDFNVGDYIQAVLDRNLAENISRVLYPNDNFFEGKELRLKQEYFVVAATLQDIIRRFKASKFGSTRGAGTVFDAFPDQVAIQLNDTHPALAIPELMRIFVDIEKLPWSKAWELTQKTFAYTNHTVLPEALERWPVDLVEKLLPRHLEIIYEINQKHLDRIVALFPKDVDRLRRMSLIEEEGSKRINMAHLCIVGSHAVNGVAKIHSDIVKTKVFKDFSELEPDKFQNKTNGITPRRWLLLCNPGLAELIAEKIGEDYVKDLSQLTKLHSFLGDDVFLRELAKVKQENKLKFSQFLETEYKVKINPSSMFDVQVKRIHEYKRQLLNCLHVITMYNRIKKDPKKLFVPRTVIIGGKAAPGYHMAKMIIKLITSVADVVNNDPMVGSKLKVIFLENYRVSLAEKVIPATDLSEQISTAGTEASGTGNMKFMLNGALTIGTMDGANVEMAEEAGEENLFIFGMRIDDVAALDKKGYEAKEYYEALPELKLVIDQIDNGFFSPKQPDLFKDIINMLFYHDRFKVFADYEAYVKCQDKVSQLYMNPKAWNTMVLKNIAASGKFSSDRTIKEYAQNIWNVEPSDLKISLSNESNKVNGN
Test: Measurement of liver glycogen phosphorylase activity (enzyme inhibitory activity against HLGPa)
Format: biochemical
Conditions: Sf9 cell lysate expressing recombinant enzyme; reverse reaction (glycogen synthesis from G1-P), phosphate by malachite green, 60 min room temperature
In short: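 Activity was run in the reverse, glycogen-synthesis direction, using Sf9 lysate expressing recombinant human liver glycogen phosphorylase (enzyme solution 80 μg/mL protein, pH 7.0). Substrate solution was Tris pH 7.2 with 1.25 mM glucose-1-phosphate, 2.5 mg/ml glycogen and 7.5 mM glucose, reacted 60 min at room temperature. Released phosphate was measured by malachite green A650, with % inhibition taken against DMSO control and no-enzyme blank.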

IC50 | Structure (SMILES)
210 nM | Cc1ccc2[nH]c(C(=O)Nn3c(=O)[nH]c4cc(F)c(F)cc4c3=O)cc2c1 [Example 2-26, 5-methyl-1H-indole-2-carboxylic acid (6,7-difluoro-1,2,3,4-tetrahydro-2,4-dioxoquinazolin-3-yl)amide]
300 nM | COc1ccc2[nH]c(=O)n(NC(=O)c3cc4cc(C)ccc4[nH]3)c(=O)c2c1 [Example 2-27, 5-methyl-1H-indole-2-carboxylic acid (1,2,3,4-tetrahydro-6-methoxy-2,4-dioxoquinazolin-3-yl)amide]
56 nM | Cc1ccc2[nH]c(C(=O)Nn3c(=O)[nH]c4ccc(O)cc4c3=O)cc2c1 [Example 2-28, 5-methyl-1H-indole-2-carboxylic acid (1,2,3,4-tetrahydro-6-hydroxy-2,4-dioxoquinazolin-3-yl)amide]
270 nM | CC(=O)Oc1ccc2[nH]c(=O)n(NC(=O)c3cc4cc(C)ccc4[nH]3)c(=O)c2c1 [Example 2-29, acetic acid 3-((5-methyl-1H-indole-2-carbonyl)amino)-1,2,3,4-tetrahydro-2,4-dioxoquinazolin-6-yl ester]
88 nM | CCCn1c(=O)n(NC(=O)c2cc3cc(Cl)ccc3[nH]2)c(=O)c2ccccc21 [Example 2-30, 5-chloro-1H-indole-2-carboxylic acid (1,2,3,4-tetrahydro-2,4-dioxo-1-propylquinazolin-3-yl)amide]
26 nM | Cn1c(=O)n(NC(=O)c2cc3cc(Cl)ccc3[nH]2)c(=O)c2ccccc21 [Example 2-31, 5-chloro-1H-indole-2-carboxylic acid (1,2,3,4-tetrahydro-1-methyl-2,4-dioxoquinazolin-3-yl)amide]
78 nM | O=C(NN1C(=O)CCN(c2ccccc2)C1=O)c1cc2cc(Cl)ccc2[nH]1 [Example 3-3, N-(2,4-dioxo-1-phenyl-perhydropyrimidin-3-yl)-5-chloro-1H-indole-2-carboxamide]
190 nM | O=C(NN1C(=O)CCN(c2ccc(F)cc2)C1=O)c1cc2cc(Cl)ccc2[nH]1 [Example 3-5, 5-chloro-1H-indole-2-carboxylic acid (1-(4-fluorophenyl)-2,4-dioxoperhydropyrimidin-3-yl)amide]
190 nM | O=C(NN1C(=O)CCN(c2ccccn2)C1=O)c1cc2cc(Cl)ccc2[nH]1 [Example 3-6, 5-chloro-1H-indole-2-carboxylic acid (2,4-dioxo-1-(pyridin-2-yl)perhydropyrimidin-3-yl)amide]
50 nM | O=C(NN1C(=O)CCN(c2cccc(F)c2)C1=O)c1cc2cc(Cl)ccc2[nH]1 [Example 3-7, 5-chloro-1H-indole-2-carboxylic acid (1-(3-fluorophenyl)-2,4-dioxoperhydropyrimidin-3-yl)amide]
730 nM | O=C(NN1C(=O)CCN(c2ccccc2)C1=O)c1cc2cc(F)ccc2[nH]1 [Example 3-9, 5-fluoro-1H-indole-2-carboxylic acid (2,4-dioxo-1-phenyl-perhydropyrimidin-3-yl)amide]
440 nM | Cc1ccc2[nH]c(C(=O)NN3C(=O)CCN(c4ccccc4)C3=O)cc2c1 [Example 3-10, 5-methyl-1H-indole-2-carboxylic acid (2,4-dioxo-1-phenyl-perhydropyrimidin-3-yl)amide]
520 nM | O=C(NN1C(=O)CCN(c2cccc(Cl)c2)C1=O)c1cc2cc(Cl)ccc2[nH]1 [Example 3-11, 5-chloro-1H-indole-2-carboxylic acid (1-(3-chlorophenyl)-2,4-dioxoperhydropyrimidin-3-yl)amide]
680 nM | Cc1cccc(N2CCC(=O)N(NC(=O)c3cc4cc(Cl)ccc4[nH]3)C2=O)c1 [Example 3-12, 5-chloro-1H-indole-2-carboxylic acid (2,4-dioxo-1-(m-tolyl)perhydropyrimidin-3-yl)amide]
440 nM | Cc1ccc(N2CCC(=O)N(NC(=O)c3cc4cc(Cl)ccc4[nH]3)C2=O)cc1 [Example 3-13, 5-chloro-1H-indole-2-carboxylic acid (2,4-dioxo-1-(p-tolyl)perhydropyrimidin-3-yl)amide]
120 nM | O=C(NN1C(=O)CCN(c2ccc(Cl)cc2)C1=O)c1cc2cc(Cl)ccc2[nH]1 [Example 3-14, 5-chloro-1H-indole-2-carboxylic acid (1-(4-chlorophenyl)-2,4-dioxoperhydropyrimidin-3-yl)amide]
150 nM | Cc1ccccc1N1CCC(=O)N(NC(=O)c2cc3cc(Cl)ccc3[nH]2)C1=O [Example 3-15, 5-chloro-1H-indole-2-carboxylic acid (2,4-dioxo-1-(o-tolyl)perhydropyrimidin-3-yl)amide]

IC50 | Structure (SMILES)
23 nM | O=C(NN1C(=O)CN(c2ccccc2)C1=O)c1cc2cc(Cl)ccc2[nH]1 [Example 4-2, N-(2,4-dioxo-1-phenylimidazolidin-3-yl)-5-chloro-1H-indole-2-carboxamide]
> 100 nM | O=C(NN1C(=O)CN(c2ccccc2)C1=S)c1cc2cc(Cl)ccc2[nH]1 [Example 4-3, N-(4-oxo-1-phenyl-2-thioxoimidazolidin-3-yl)-5-chloro-1H-indole-2-carboxamide]
> 100 nM | O=C(NN1CN(c2ccccc2)CC1=O)c1cc2cc(Cl)ccc2[nH]1 [Example 4-4, N-(1-oxo-4-phenylimidazolidin-2-yl)-5-chloro-1H-indole-2-carboxamide]
> 100 nM | O=C(NN1CCN(c2ccccc2)C1=O)c1cc2cc(Cl)ccc2[nH]1 [Example 4-5, N-(2-oxo-1-phenylimidazolidin-3-yl)-5-chloro-1H-indole-2-carboxamide]
> 100 nM | O=C(NN1C(=O)[C@@H]2CCCN2C1=O)c1cc2cc(Cl)ccc2[nH]1 [Example 4-7, 5-chloro-1H-indole-2-carboxylic acid ((4S)-1,3-dioxo-perhydropyrrolo[1,2-c]imidazol-2-yl)amide]
> 100 nM | O=C(NN1C(=O)[C@H]2CCCN2C1=O)c1cc2cc(Cl)ccc2[nH]1 [Example 4-8, 5-chloro-1H-indole-2-carboxylic acid ((4R)-1,3-dioxo-perhydropyrrolo[1,2-c]imidazol-2-yl)amide]
> 100 nM | O=C(NN1C(=O)N[C@@H](Cc2ccccc2)C1=O)c1cc2cc(Cl)ccc2[nH]1 [Example 4-9, 5-chloro-1H-indole-2-carboxylic acid ((4S)-4-benzyl-2,5-dioxoimidazolidin-1-yl)amide]
> 100 nM | O=C(NN1C(=O)N[C@H](Cc2ccccc2)C1=O)c1cc2cc(Cl)ccc2[nH]1 [Example 4-10, 5-chloro-1H-indole-2-carboxylic acid ((4R)-4-benzyl-2,5-dioxoimidazolidin-1-yl)amide]
> 100 nM | O=C(NN1C(=O)CNC1=O)c1cc2cc(Cl)ccc2[nH]1 [Example 4-11, 5-chloro-1H-indole-2-carboxylic acid (2,4-dioxoimidazolidin-3-yl)amide]
> 100 nM | CN1C(=O)N(NC(=O)c2cc3cc(Cl)ccc3[nH]2)C(=O)[C@@H]1c1ccccc1 [Example 4-12, 5-chloro-1H-indole-2-carboxylic acid (1-methyl-2,5-dioxo-4-phenylimidazolidin-1-yl)amide]
> 100 nM | O=C(NN1C(=O)CN(c2ccc(F)cc2)C1=O)c1cc2cc(Cl)ccc2[nH]1 [Example 4-13, 5-chloro-1H-indole-2-carboxylic acid (2,4-dioxo-1-(4-fluorophenyl)imidazolidin-3-yl)amide]
110 nM | O=C(NN1C(=O)NC(c2ccccc2F)C1=O)c1cc2cc(Cl)ccc2[nH]1 (stereo not drawn) [Example 4-14, 5-chloro-1H-indole-2-carboxylic acid (2,5-dioxo-4-(2-fluorophenyl)imidazolidin-1-yl)amide]
75 nM | O=C(NN1C(=O)N[C@@H](c2ccc(O)cc2)C1=O)c1cc2cc(Cl)ccc2[nH]1 [Example 4-18, 5-chloro-1H-indole-2-carboxylic acid ((4S)-2,5-dioxo-4-(4-hydroxyphenyl)imidazolidin-1-yl)amide]
170 nM | COc1ccc([C@H]2NC(=O)N(NC(=O)c3cc4cc(Cl)ccc4[nH]3)C2=O)cc1 [Example 4-20, 5-chloro-1H-indole-2-carboxylic acid ((4R)-2,5-dioxo-4-(4-methoxyphenyl)imidazolidin-1-yl)amide]
79 nM | O=C(NNC(=O)c1cc2cc(Cl)ccc2[nH]1)Nc1ccccc1F [Example 5-5, 5-chloro-1H-indole-2-carboxylic acid 2-((2-fluorophenyl)aminocarbonyl)hydrazide]
49 nM | O=C(NNC(=O)c1cc2cc(Cl)ccc2[nH]1)Nc1cccc(F)c1 [Example 5-6, 5-chloro-1H-indole-2-carboxylic acid 2-((3-fluorophenyl)aminocarbonyl)hydrazide]
